According to patent publication US20260217673A1, “NOVEL COMPOUND AS RON INHIBITOR” (LG CHEM, LTD., priority 2022, published 2026):

Columns and labels:
cMET = cMET (Homo sapiens, UniProt P08581); assay: MET (cMET) enzyme inhibitory activity, TR-FRET kinase assay; type: biochemical; conditions: cMET protein, TK peptide substrate
Procedure: In addition, to measure cMET enzyme activity inhibition, an experiment was performed by the same method as the experiment for measuring the RON enzyme activity inhibition.
Specifically, the compound was prepared at a concentration of 1 mM with 100% DMSO and serially diluted 10 times through 3-fold dilution. 2 μl of the serially diluted compound was added to a 96-well plate containing 48 μl 1× kinase reaction buffer (50 mM HEPES (pH 7.4), 0.05% BSA, 0.005% Tween-20, 1 mM DTT, 0.5 mM MnCl2, 20 mM MgCl2).
The cMET protein was diluted in a cMET storage buffer (50 mM Tris-HCl (pH 7.5), 150 mM NaCl, 0.05% Brij35, 1 mM DTT, 10% glycerol) to a concentration of 263 nM, and then diluted again with 1× kinase reaction buffer to 2 nM. As a substrate cocktail, a MET-specific substrate mixture (5 μM TK peptide, 10 mM ATP) was prepared at a concentration twice the final reaction concentration.
(§1) After that, a 384-well plate was prepared, and 2.5 μl of the diluted example compound was added to each of the experimental group wells, and 2.5 μl of a 4% DMSO solution was dispensed into high control wells and low control wells.
(§2) Afterward, 2.5 μl of 2 nM cMET was dispensed to the high control wells and the experimental group wells, and 2.5 μl of 1× kinase reaction buffer was added to the low control wells, and after centrifugation at 1000 RPM for 40 seconds at room temperature, the mixtures were incubated at room temperature for 20 to 30 minutes. Then, 5 μl of the substrate cocktail (2×) was dispensed into all wells, and after centrifugation at 1000 RPM for 40 seconds at room temperature, the mixtures were incubated at room temperature for 60 minutes. Afterward, 5 μl of 90 mM EDTA was added to all wells to terminate the reaction, and the mixtures were incubated again at room temperature for 5 minutes. Thereafter, 5 μl of 4× phosphotyrosine antibodies (Perkin Elmer) containing europium was added to all wells and incubated at room temperature for 60 minutes. After the incubation, the 384-well-plate was read with a Vison plate reader. At this time, the excitation wavelength was 340 nm, and the emission wavelengths were 620 nm and 665 nm. The IC50 value of each example compound was derived using the GraphPd Prism7 program.

RON = RON (Homo sapiens, UniProt Q04912); assay: RON inhibitory activity, TR-FRET kinase assay; type: biochemical; conditions: RON protein, ULight-labeled Poly GT substrate
RON, sequence (Q04912 25-1400, species assumed): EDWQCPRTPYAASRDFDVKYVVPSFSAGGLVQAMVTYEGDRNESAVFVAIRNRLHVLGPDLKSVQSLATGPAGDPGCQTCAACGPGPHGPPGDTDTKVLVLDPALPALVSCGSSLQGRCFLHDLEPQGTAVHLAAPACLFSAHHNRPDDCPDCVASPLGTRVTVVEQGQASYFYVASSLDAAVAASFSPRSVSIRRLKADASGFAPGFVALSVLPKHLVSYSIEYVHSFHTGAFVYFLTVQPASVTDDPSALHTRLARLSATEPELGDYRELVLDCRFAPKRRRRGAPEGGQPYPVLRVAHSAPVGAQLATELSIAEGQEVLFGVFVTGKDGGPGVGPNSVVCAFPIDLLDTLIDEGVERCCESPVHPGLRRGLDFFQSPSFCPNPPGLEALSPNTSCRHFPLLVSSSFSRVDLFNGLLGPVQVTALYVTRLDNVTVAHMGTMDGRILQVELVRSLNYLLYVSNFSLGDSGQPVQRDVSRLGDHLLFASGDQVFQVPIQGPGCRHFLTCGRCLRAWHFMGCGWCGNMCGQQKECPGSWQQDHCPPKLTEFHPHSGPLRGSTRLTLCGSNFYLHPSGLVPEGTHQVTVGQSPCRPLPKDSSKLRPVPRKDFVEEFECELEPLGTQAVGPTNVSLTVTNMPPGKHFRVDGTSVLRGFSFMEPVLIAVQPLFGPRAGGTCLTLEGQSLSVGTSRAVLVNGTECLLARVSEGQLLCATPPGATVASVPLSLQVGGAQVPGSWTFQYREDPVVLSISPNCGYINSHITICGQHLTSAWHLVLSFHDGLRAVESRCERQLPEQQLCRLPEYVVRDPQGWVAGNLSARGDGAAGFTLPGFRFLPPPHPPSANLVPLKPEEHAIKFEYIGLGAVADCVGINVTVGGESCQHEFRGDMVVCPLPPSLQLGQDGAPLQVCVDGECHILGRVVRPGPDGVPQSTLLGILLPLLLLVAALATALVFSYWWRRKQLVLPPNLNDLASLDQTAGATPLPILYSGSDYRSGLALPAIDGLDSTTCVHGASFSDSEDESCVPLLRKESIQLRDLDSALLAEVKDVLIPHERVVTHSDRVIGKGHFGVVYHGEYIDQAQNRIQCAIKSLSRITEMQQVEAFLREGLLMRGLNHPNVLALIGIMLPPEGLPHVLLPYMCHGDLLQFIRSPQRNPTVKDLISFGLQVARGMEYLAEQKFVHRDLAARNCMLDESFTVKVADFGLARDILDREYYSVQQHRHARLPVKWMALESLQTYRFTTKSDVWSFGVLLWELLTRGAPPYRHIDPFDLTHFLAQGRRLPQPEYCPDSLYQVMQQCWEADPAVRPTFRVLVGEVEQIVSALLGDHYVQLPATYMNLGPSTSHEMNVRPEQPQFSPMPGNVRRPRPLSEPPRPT
Procedure: To measure the RON inhibitory activity of the example compounds, the IC50 of the compounds was measured using time-resolved fluorescence energy transfer (TR-FRET).
Specifically, the compound was prepared at a concentration of 1 mM with 100% DMSO and serially diluted 10 times through 3-fold dilution. 2 μl of the serially diluted compound was added to a 96-well plate containing 48 μl of 1× kinase reaction buffer (50 mM HEPES (pH 7.4), 0.01% Tween-20, 5 mM DTT, 0.5 mM Na3VO4, 2 mM EGTA, 10 mM MgCl2).
The RON protein was diluted with a RON storage buffer (50 mM Tris-HCl (pH 7.5), 150 mM NaCl, 0.5 mM EDTA, 0.02% Triton X-100) to a concentration of 49.3 nM, and then diluted again with 1× kinase reaction buffer to be 0.4 nM. As a substrate cocktail, a RON-specific substrate mixture (40 μM ULight-labeled Poly GT, 100 nM ATP) was prepared at a concentration twice the final reaction concentration.
as §1
as §2, with “of 0.4” for “of 2”, “nM RON” for “nM cMET”, “dispensed into” for “dispensed to”, “of 30” for “of 90”

cMET, sequence (P08581 25-1390): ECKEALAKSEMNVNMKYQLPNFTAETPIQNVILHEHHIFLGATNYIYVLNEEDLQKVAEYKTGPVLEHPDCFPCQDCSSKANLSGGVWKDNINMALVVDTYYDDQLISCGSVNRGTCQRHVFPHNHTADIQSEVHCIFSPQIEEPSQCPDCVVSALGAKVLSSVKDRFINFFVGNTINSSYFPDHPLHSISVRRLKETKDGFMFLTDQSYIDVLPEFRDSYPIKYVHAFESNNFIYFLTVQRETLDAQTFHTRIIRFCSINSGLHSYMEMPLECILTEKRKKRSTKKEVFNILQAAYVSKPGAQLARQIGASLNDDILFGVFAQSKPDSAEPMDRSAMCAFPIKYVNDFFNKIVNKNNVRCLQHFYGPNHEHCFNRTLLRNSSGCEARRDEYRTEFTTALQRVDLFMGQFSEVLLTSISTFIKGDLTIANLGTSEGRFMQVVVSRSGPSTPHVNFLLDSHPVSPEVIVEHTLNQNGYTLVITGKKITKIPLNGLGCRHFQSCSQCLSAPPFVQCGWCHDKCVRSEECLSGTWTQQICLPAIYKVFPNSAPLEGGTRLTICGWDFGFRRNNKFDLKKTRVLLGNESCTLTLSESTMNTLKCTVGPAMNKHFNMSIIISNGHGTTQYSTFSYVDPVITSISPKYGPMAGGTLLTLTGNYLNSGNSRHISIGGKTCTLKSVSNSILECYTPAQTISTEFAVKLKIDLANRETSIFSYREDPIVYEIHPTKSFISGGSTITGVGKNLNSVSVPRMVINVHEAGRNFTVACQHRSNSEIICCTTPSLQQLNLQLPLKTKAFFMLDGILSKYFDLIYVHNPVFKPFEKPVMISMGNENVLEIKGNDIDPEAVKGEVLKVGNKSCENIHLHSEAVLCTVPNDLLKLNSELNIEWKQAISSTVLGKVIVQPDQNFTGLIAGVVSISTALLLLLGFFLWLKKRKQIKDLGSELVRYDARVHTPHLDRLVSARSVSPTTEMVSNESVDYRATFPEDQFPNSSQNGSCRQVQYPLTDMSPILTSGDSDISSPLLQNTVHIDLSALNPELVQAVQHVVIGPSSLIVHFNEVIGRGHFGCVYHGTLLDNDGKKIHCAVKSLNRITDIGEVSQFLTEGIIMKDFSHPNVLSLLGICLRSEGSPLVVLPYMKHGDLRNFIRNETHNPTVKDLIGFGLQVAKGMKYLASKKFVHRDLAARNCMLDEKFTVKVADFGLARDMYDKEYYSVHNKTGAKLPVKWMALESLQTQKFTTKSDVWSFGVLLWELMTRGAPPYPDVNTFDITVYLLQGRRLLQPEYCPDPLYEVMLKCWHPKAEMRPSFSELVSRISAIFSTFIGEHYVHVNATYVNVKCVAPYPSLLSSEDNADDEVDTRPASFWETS

Row | Compound | IC50 (cMET) | IC50 (RON)
1 | Nc1ncnc(Oc2c(F)cc(NC(=O)c3cnn(-c4ncccn4)c3C(F)(F)F)cc2F)c1Cl [Example 12, N-(4-((6-amino-5-chloropyrimidin-4-yl)oxy)-3,5-difluorophenyl)-1-(pyrimidin-2-yl)-5-(trifluoromethyl)-1H-pyrazole-4-carboxamide] | 500 to 5000 nM | < 50 nM
2 | Nc1nccc(Oc2c(F)cc(NC(=O)c3cnn(-c4cccnn4)c3C(F)(F)F)cc2F)c1I [Example 17, N-(4-((2-amino-3-iodopyridin-4-yl)oxy)-3,5-difluorophenyl)-1-(pyridazin-3-yl)-5-(trifluoromethyl)-1H-pyrazole-4-carboxamide] | 500 to 5000 nM | < 50 nM
3 | C#Cc1c(Oc2c(F)cc(NC(=O)c3cnn(-c4ccccc4)c3C(F)(F)F)cc2F)ccnc1N [Example 25, N-(4-((2-amino-3-ethynylpyridin-4-yl)oxy)-3,5-difluorophenyl)-1-phenyl-5-(trifluoromethyl)-1H-pyrazole-4-carboxamide] | 500 to 5000 nM | < 50 nM
4 | Nc1nccc(Oc2c(F)cc(NC(=O)c3cnn(-c4ccccc4)c3C(F)(F)F)cc2F)c1C#CCO [Example 51, N-(4-((2-amino-3-(3-hydroxyprop-1-yn-1-yl)pyridin-4-yl)oxy)-3,5-difluorophenyl)-1-phenyl-5-(trifluoromethyl)-1H-pyrazole-4-carboxamide] | 500 to 5000 nM | < 50 nM
5 | C#Cc1c(Oc2c(F)cc(NC(=O)c3cnn(-c4ncccn4)c3C(F)(F)F)cc2F)ccnc1N [Example 28, N-(4-((2-amino-3-ethynylpyridin-4-yl)oxy)-3,5-difluorophenyl)-1-(pyrimidin-2-yl)-5-(trifluoromethyl)-1H-pyrazole-4-carboxamide] | 500 to 5000 nM | < 50 nM
6 | Nc1nccc(Oc2c(F)cc(NC(=O)c3cnn(-c4ncccn4)c3C(F)(F)F)cc2F)c1I [Example 18, N-(4-((2-amino-3-iodopyridin-4-yl)oxy)-3,5-difluorophenyl)-1-(pyrimidin-2-yl)-5-(trifluoromethyl)-1H-pyrazole-4-carboxamide] | 500 to 5000 nM | < 50 nM
7 | Nc1nccc(Oc2c(F)cc(NC(=O)c3cnn(-c4ccccc4)c3C(F)(F)F)cc2F)c1CN1CCOCC1 [Example 50, N-(4-((2-amino-3-(morpholinomethyl)pyridin-4-yl)oxy)-3,5-difluorophenyl)-1-phenyl-5-(trifluoromethyl)-1H-pyrazole-4-carboxamide] | 500 to 5000 nM | < 50 nM
8 | COCCCN1CCC(n2ncc(C(=O)Nc3cc(F)c(Oc4ccnc(N)c4Cl)c(F)c3)c2C(F)(F)F)CC1 [Example 59, N-(4-((2-amino-3-chloropyridin-4-yl)oxy)-3,5-difluorophenyl)-1-(1-(3-methoxypropyl)piperidin-4-yl)-5-(trifluoromethyl)-1H-pyrazole-4-carboxamide] | > 5000 nM | 500 to 5000 nM
9 | CC(C)c1c(Oc2c(F)cc(NC(=O)c3cnn(-c4ccccc4)c3C(F)(F)F)cc2F)ccnc1N [Example 43, N-(4-((2-amino-3-isopropylpyridin-4-yl)oxy)-3,5-difluorophenyl)-1-phenyl-5-(trifluoromethyl)-1H-pyrazole-4-carboxamide] | 500 to 5000 nM | < 50 nM

More lines, now with the values ahead:

Row | IC50 (cMET) | IC50 (RON) | Compound
10 | 500 to 5000 nM | < 50 nM | Nc1nccc(Oc2c(F)cc(NC(=O)c3cnn(-c4ccccc4)c3C(F)(F)F)cc2F)c1C1CCOCC1 [Example 19, N-(4-((2-amino-3-(tetrahydro-2H-pyran-4-yl)pyridin-4-yl)oxy)-3,5-difluorophenyl)-1-phenyl-5-(trifluoromethyl)-1H-pyrazole-4-carboxamide]
11 | > 5000 nM | < 50 nM | CCc1c(C(=O)Nc2cc(F)c(Oc3ccnc(N)c3Cl)c(F)c2)cnn1-c1ncccc1F [Example 4, N-(4-((2-amino-3-chloropyridin-4-yl)oxy)-3,5-difluorophenyl)-5-ethyl-1-(3-fluoropyridin-2-yl)-1H-pyrazole-4-carboxamide]
12 | 50 to 500 nM | < 50 nM | Nc1nccc(Oc2c(F)cc(NC(=O)c3cnn(-c4ncccc4Cl)c3C(F)(F)F)cc2F)c1C1CCOCC1 [Example 21, N-(4-((2-amino-3-(tetrahydro-2H-pyran-4-yl)pyridin-4-yl)oxy)-3,5-difluorophenyl)-1-(3-chloropyridin-2-yl)-5-(trifluoromethyl)-1H-pyrazole-4-carboxamide]
13 | 500 to 5000 nM | < 50 nM | Nc1nccc(Oc2c(F)cc(NC(=O)c3cnn(-c4ncccn4)c3C(F)(F)F)cc2F)c1C1CCOCC1 [Example 22, N-(4-((2-amino-3-(tetrahydro-2H-pyran-4-yl)pyridin-4-yl)oxy)-3,5-difluorophenyl)-1-(pyrimidin-2-yl)-5-(trifluoromethyl)-1H-pyrazole-4-carboxamide]
14 | 500 to 5000 nM | < 50 nM | Nc1nccc(Oc2c(F)cc(NC(=O)c3cnn(-c4cccnn4)c3C(F)(F)F)cc2F)c1C1CCOCC1 [Example 23, N-(4-((2-amino-3-(tetrahydro-2H-pyran-4-yl)pyridin-4-yl)oxy)-3,5-difluorophenyl)-1-(pyridazin-3-yl)-5-(trifluoromethyl)-1H-pyrazole-4-carboxamide]
15 | 50 to 500 nM | < 50 nM | Nc1nccc(Oc2c(F)cc(NC(=O)c3cnn(-c4ncccc4F)c3C(F)(F)F)cc2F)c1C#CCO [Example 53, N-(4-((2-amino-3-(3-hydroxyprop-1-yn-1-yl)pyridin-4-yl)oxy)-3,5-difluorophenyl)-1-(3-fluoropyridin-2-yl)-5-(trifluoromethyl)-1H-pyrazole-4-carboxamide]
16 | 500 to 5000 nM | < 50 nM | Nc1ncnc(Oc2c(F)cc(NC(=O)c3cnn(-c4ncccc4F)c3C(F)(F)F)cc2F)c1Cl [Example 10, N-(4-((6-amino-5-chloropyrimidin-4-yl)oxy)-3,5-difluorophenyl)-1-(3-fluoropyridin-2-yl)-5-(trifluoromethyl)-1H-pyrazole-4-carboxamide]
17 | 500 to 5000 nM | < 50 nM | Nc1nccc(Oc2c(F)cc(NC(=O)c3cnn(-c4ncccc4F)c3C(F)(F)F)cc2F)c1C1CC1 [Example 38, N-(4-((2-amino-3-cyclopropylpyridin-4-yl)oxy)-3,5-difluorophenyl)-1-(3-fluoropyridin-2-yl)-5-(trifluoromethyl)-1H-pyrazole-4-carboxamide]
18 | 50 to 500 nM | < 50 nM | Nc1nccc(Oc2c(F)cc(NC(=O)c3cnn(-c4ncccc4F)c3C(F)(F)F)cc2F)c1C1CCOCC1 [Example 20, N-(4-((2-amino-3-(tetrahydro-2H-pyran-4-yl)pyridin-4-yl)oxy)-3,5-difluorophenyl)-1-(3-fluoropyridin-2-yl)-5-(trifluoromethyl)-1H-pyrazole-4-carboxamide]
19 | > 5000 nM | < 50 nM | Nc1nccc(Oc2cc(F)c(NC(=O)c3cnn(-c4ncccc4F)c3C(F)(F)F)cc2F)c1Cl [Example 5, N-(4-((2-amino-3-chloropyridin-4-yl)oxy)-2,5-difluorophenyl)-1-(3-fluoropyridin-2-yl)-5-(trifluoromethyl)-1H-pyrazole-4-carboxamide]
